Values after ≈ are worked out from the molar mass of the structure shown. Where two headings read alike, the source gives them in different places. Positions of bridges follow the written chain, without caps; N, C: chain ends. Non-standard residues stand in square brackets, D forms with d. Residues, ends and D or L forms follow the SMILES beside them. *: point of attachment. Heptanoyl(6-Me) = CC(C)CCCCC(=O)*; dDab = NCC[C@@H](N)C(=O)O; Dab = NCC[C@H](N)C(=O)O
Key:
[1] = test system: Burkolderia cenocepacia; assay: microbe, parasite or virus in culture; conditions: for MIC Burkolderia cenocepacia: MDR strain, MH broth pH 7.4, 16–20 h, 37 °C
Experimental: (§1) Antimicrobial activity was determined for all peptides on E. coli W3110, P. aeruginosa PAO1, A. baumannii ATCC19606, K. pneumoniae NCTC418, and methicillin-resistant S. aureus COL and for selected peptides on P. aeruginosa PA14 and the polymyxin B-resistant derivatives PA14 4.13, PA14 4.18, and PA14 2P4 as well as the clinical isolates ZEM-1A and ZEM9A, K. pneumoniae OXA-48, Enterobacter cloacae, Stenotrophomonas maltophilia, B. cenocepacia, and Staphylococus epidermis. To determine the MIC, the broth microdilution method was used.[75] A single bacterial colony was grown in LB medium overnight at 37 °C and 180 rpm shaking. The compounds were prepared as stock solutions of 2 mg/mL in sterilized milliQ deionized water, added to the first well of 96-well sterile, polypropylene round-bottom microtiter plates (TPP, untreated, Corning Incorporated, Kennebunk, USA), and diluted serially by 1/2. […] The bacterial inoculum was prepared by measuring the absorbance of the overnight culture, which was diluted to concentration of the bacteria was quantified by measuring absorbance at 600 nm and diluted to an OD600 of 0.022 in MH medium pH 7.4 (Sigma-Aldrich, Buchs, Switzerland). The sample solutions (150 μL) were mixed with 4 μL of diluted bacterial suspension with a final inoculation of about 5 × 10^5 CFU. For each test, two columns of the plate were kept for sterility control (MH medium only) and growth control (MH medium with bacterial inoculum, no compound). […] The plates were incubated at 37 °C for 16–20 h under static conditions. 15 μL of 3-(4,5-dimethylthiazol-2-yl)-2,5-diphenyltetrazolium bromide (MTT)[76] (1 mg/mL in sterilized milliQ deionized water) was added to each well, and the plates were incubated at room temperature until MTT staining was completed. The MIC was defined as the lowest concentration of the dendrimer that inhibits the visible growth of the tested bacteria (yellow) with the unaided eye.

[2] = test system: Enterobacter cloacae; assay: microbe, parasite or virus in culture; conditions: for MIC Enterobacter cloacae: pH 7.4
Experimental: as §1

[3] = test system: P. aeruginosa PA14; assay: microbe, parasite or virus in culture; conditions: for MIC PA14: MH broth pH 7.4, 16–20 h, 37 °C; for MIC P. aeruginosa PA14: supplementary CSV
Experimental: as §1

[4] = test system: P. aeruginosa ZEM-1A; assay: microbe, parasite or virus in culture; conditions: for MIC ZEM-1A: pH 7.4
Experimental: as §1

[5] = test system: PA14 2P4 (pmrB); assay: microbe, parasite or virus in culture; conditions: for MIC P. aeruginosaPA14 2P4: supplementary CSV
Experimental: as §1

[6] = test system: PA14 4.13 (phoQ); assay: microbe, parasite or virus in culture; conditions: for MIC P. aeruginosa PA14 4.13: supplementary CSV
Experimental: as §1

[7] = test system: PA14 4.18 (pmrB); assay: microbe, parasite or virus in culture; conditions: for MIC P. aeruginosa PA14 4.18: supplementary CSV
Experimental: as §1

[8] = test system: K. pneumoniae Oxa-48; assay: MIC broth microdilution, K. pneumoniae Oxa-48; assay type: cell-based, Klebsiella pneumoniae; conditions: for MIC K. pneumoniae Oxa-48: MDR strain, MH broth pH 7.4, 16–20 h, 37 °C
Experimental: as §1

[9] = test system: Stenotrophomonas maltophilia; assay: microbe, parasite or virus in culture; assay type: cell-based; conditions: for MIC Stenotrophomonas maltophilia: pH 7.4
Experimental: as §1

[10] = test system: Staphylococcus epidermis; assay: MIC broth microdilution, Staphylococcus epidermis; assay type: cell-based; conditions: pH 7.4
Experimental: as §1

[11] = test system: HEK293 cells; assay: Alamar blue cytotoxicity, HEK293; assay type: cell-based, human; conditions: 24 h, mean ± SD, n = 3, read-out: Toxicity on HEK293 cells
Experimental: (§2) The A549 human lung adenocarcinoma cells are derived from a patient and were kindly given to us by Dr. Georgia Konstatinidou (Pharmacology Institute, Bern University). HEK293T cells were obtained from ATCC (CRL-11268). A549 and HEK293 were cultured in an incubator at 37 °C with 5% CO2 in RPMI-1640 (Gibco) and DMEM (Gibco) containing 10% fetal bovine serum (Thermo Fisher), 100 I.U./mL penicillin, and 100 μg/mL streptomycin (Gibco).
(§3) The viability of the cells was assessed with an AlamarBlue assay (ThermoFisher). Cells were seeded into 96-well plates, 4000 cells/well (HEK293) and 8000 cells/well (A549), the day before the experiment. Cells were then treated with the increasing concentration of the compound and incubated for 24 h at 37 °C in the presence of 5% CO2. The next day, the medium was removed and replaced by a 10% AlamarBlue solution in full growth medium (DMEM or RPMI-1640). The cells were incubated for 3–5 h at 37 °C with 5% CO2 in a humidified atmosphere. The fluorescence was then measured on a Tecan Infinite M1000 Pro plate reader at λex 560 nm and λem 590 nm. The value was normalized according to the untreated cells.

[12] = test system: A549 cells; assay: Alamar blue cytotoxicity, A549; assay type: cell-based, human; conditions: 24 h, mean ± SD, n = 3, read-out: Toxicity on A549 lung cancern cells
Experimental: as §2, §3

[13] = test system: A. baumannii ATCC19606
Experimental: as §1

[14] = test system: E. coli W3110; conditions: MH broth pH 7.4, 16–20 h, 37 °C
Experimental: as §1

[15] = test system: K. pneumoniae NCTC418
Experimental: as §1

[16] = test system: P. aeruginosa PAO1
Experimental: as §1

[17] = test system: S. aureus COL MRSA; conditions: for MIC S. aureus COL MRSA: MH broth pH 7.4, 16–20 h, 37 °C; for MIC S. aureus COL: supplementary CSV, ranges of Table 1 given as one number
Experimental: as §1

[18] = test system: S. aureus Newman; conditions: for MIC S. aureus Newman: MH broth pH 7.4, 16–20 h, 37 °C; for MIC S. aureus Newmann: supplementary CSV
[19] = test system: P. aeruginosa ZEM9A; assay: microbe, parasite or virus in culture; assay type: cell-based, Pseudomonas aeruginosa
Experimental: as §1

[20] = MH broth pH 7.4, 16–20 h, 37 °C
[21] = supplementary CSV, ranges of Table 1 given as one number

CC(C)C[C@H](NC(=O)[C@H](CC(C)C)NC(=O)[C@H](CC(C)C)NC(=O)[C@H](CCCCN)NC(=O)[C@H](CC(C)C)NC(=O)[C@H](CC(C)C)NC(=O)[C@@H](CCCCN)NC(=O)[C@H](CC(C)C)NC(=O)[C@H](CC(C)C)NC(=O)[C@@H](CCCCN)NC(=O)[C@@H](N)CCCCN)C(N)=O [HP3, KkLLkLLKLLL]
MIC Burkolderia cenocepacia [1]: >64 µg/mL
MIC B. cenocepacia ([1]; supplementary CSV): > 64 µg/mL
MIC Enterobacter cloacae [2]: 4 µg/mL (≈ 3.03 µM)
MIC PA14 [3]: 4 µg/mL (≈ 3.03 µM)
MIC P. aeruginosa PA14 [3]: 4 µg/mL (≈ 3.03 µM)
MIC ZEM-1A [4]: 2 µg/mL (≈ 1.51 µM)
MIC P. aeruginosaPA14 2P4 [5]: 32 µg/mL (≈ 24.2 µM)
MIC P. aeruginosa PA14 4.13 [6]: 8 µg/mL (≈ 6.05 µM)
MIC P. aeruginosa PA14 4.18 [7]: 32 µg/mL (≈ 24.2 µM)
MIC K. pneumoniae Oxa-48 [8]: 4 µg/mL (≈ 3.03 µM)
MIC Stenotrophomonas maltophilia [9]: 4 µg/mL (≈ 3.03 µM)
MIC Staphylococcus epidermis [10]: 4 µg/mL (≈ 3.03 µM)
IC50 [11]: 69 ± 2.6 µM
IC50 [12]: 5.4 ± 4.4 µM
MIC A. baumannii ATCC19606 [13, 20]: 2 µg/mL (≈ 1.51 µM)
MIC A. baumannii ATCC19606 [13, 21]: 2 µg/mL (≈ 1.51 µM)
MIC E. coli W3110 [14]: 2 µg/mL (≈ 1.51 µM)
MIC K. pneumoniae NCTC418 [15, 20]: 8 µg/mL (≈ 6.05 µM)
MIC K. pneumoniae NCTC418 [15, 21]: 8 µg/mL (≈ 6.05 µM)
MIC P. aeruginosa PAO1 [16, 20]: 4 µg/mL (≈ 3.03 µM)
MIC P. aeruginosa PAO1 [16, 21]: 4 µg/mL (≈ 3.03 µM)
MIC S. aureus COL MRSA [17]: 2 to 4 µg/mL
MIC S. aureus COL [17]: 3 µg/mL (≈ 2.27 µM)
MIC S. aureus Newman [18]: 2 µg/mL (≈ 1.51 µM)
MIC S. aureus Newmann [18]: 2 µg/mL (≈ 1.51 µM)

CC(C)C[C@H](NC(=O)[C@H](CC(C)C)NC(=O)[C@H](CC(C)C)NC(=O)[C@H](CCCCN)NC(=O)[C@H](CC(C)C)NC(=O)[C@H](CC(C)C)NC(=O)[C@H](CCCCN)NC(=O)[C@H](CC(C)C)NC(=O)[C@H](CC(C)C)NC(=O)[C@@H](CCCCN)NC(=O)[C@H](N)CCCCN)C(N)=O [HP2]
MIC Burkolderia cenocepacia [1]: >64 µg/mL
MIC Enterobacter cloacae [2]: 2 µg/mL (≈ 1.51 µM)
MIC PA14 [3]: 2 µg/mL (≈ 1.51 µM)
MIC P. aeruginosa PA14 [3]: 2 µg/mL (≈ 1.51 µM)
MIC ZEM-1A [4]: 2 µg/mL (≈ 1.51 µM)
MIC P. aeruginosaPA14 2P4 [5]: 64 µg/mL (≈ 48.4 µM)
MIC P. aeruginosa PA14 4.13 [6]: 4 µg/mL (≈ 3.03 µM)
MIC P. aeruginosa PA14 4.18 [7]: 32 µg/mL (≈ 24.2 µM)
MIC ZEM9A ([19]; pH 7.4): 4 µg/mL (≈ 3.03 µM)
MIC K. pneumoniae Oxa-48 [8]: 2 µg/mL (≈ 1.51 µM)
MIC Stenotrophomonas maltophilia [9]: 2 µg/mL (≈ 1.51 µM)
MIC Staphylococcus epidermis [10]: 2 µg/mL (≈ 1.51 µM)
MIC A. baumannii ATCC19606 [13, 20]: 4 µg/mL (≈ 3.03 µM)
MIC A. baumannii ATCC19606 [13, 21]: 4 µg/mL (≈ 3.03 µM)
MIC E. coli W3110 [14]: 4 µg/mL (≈ 3.03 µM)
MIC K. pneumoniae NCTC418 [15, 20]: 2 to 4 µg/mL
MIC K. pneumoniae NCTC418 [15, 21]: 3 µg/mL (≈ 2.27 µM)
MIC P. aeruginosa PAO1 [16, 20]: 4 µg/mL (≈ 3.03 µM)
MIC P. aeruginosa PAO1 [16, 21]: 4 µg/mL (≈ 3.03 µM)
MIC S. aureus COL MRSA [17]: 4 µg/mL (≈ 3.03 µM)
MIC S. aureus COL [17]: 4 µg/mL (≈ 3.03 µM)
MIC S. aureus Newman [18]: 2 µg/mL (≈ 1.51 µM)
MIC S. aureus Newmann [18]: 2 µg/mL (≈ 1.51 µM)

CC(C)CCCCC(=O)N[C@@H](CCN)C(=O)N[C@H](C(=O)N[C@@H](CCN)C(=O)N[C@H]1CCNC(=O)[C@H]([C@@H](C)O)NC(=O)[C@H](CCN)NC(=O)[C@H](CCN)NC(=O)[C@H](CC(C)C)NC(=O)[C@@H](Cc2ccccc2)NC(=O)[C@@H](CCN)NC1=O)[C@@H](C)O [Pol B, polymyxin B, reference compound] ({Heptanoyl(6-Me)}-[Dab]T[Dab][Dab][dDab][dF]L[Dab][Dab]T; lactam 4-C)
MIC ([1]; Burkholderia cenocepacia, pH 7.4, read-out: MIC Burkolderia cenocepacia): > 16 µg/mL
MIC ([2]; Enterobacter cloacae, pH 7.4, read-out: MIC Enterobacter cloacae): 1 µg/mL (≈ 0.841 µM)
MIC ([3]; Pseudomonas aeruginosa, PA14, pH 7.4, read-out: MIC PA14): < 0.125 µg/mL
MIC ([4]; Pseudomonas aeruginosa, ZEM1A, pH 7.4, read-out: MIC ZEM-1A): < 0.125 µg/mL
MIC ([5]; Pseudomonas aeruginosa, PA14, pH 7.4, read-out: MIC PA14 2P4 (pmrB)): 1 µg/mL (≈ 0.841 µM)
MIC ([6]; Pseudomonas aeruginosa, PA14, pH 7.4, read-out: MIC PA14 4.13 (phoQ)): 0.25 µg/mL (≈ 0.21 µM)
MIC ([7]; Pseudomonas aeruginosa, PA14, pH 7.4, read-out: MIC PA14 4.18 (pmrB)): 1 µg/mL (≈ 0.841 µM)
MIC ([19]; Pseudomonas aeruginosa, ZEM9A, MDR strain, MH broth pH 7.4, 16–20 h, 37 °C): 2 µg/mL (≈ 1.68 µM)
MIC ([8]; Klebsiella pneumoniae, OXA48, pH 7.4, read-out: MIC K. pneumoniae Oxa-48): 2 µg/mL (≈ 1.68 µM)
MIC ([9]; Stenotrophomonas maltophilia, MDR strain, MH broth pH 7.4, 16–20 h, 37 °C): 0.5 µg/mL (≈ 0.42 µM)
